Data set [1] deals with Sperm. In words: Inhibition of human sperm motility assessed as decrease in curvilenear velocity by CASA. It counts as functional, cell-based.
Data set [2] relates to Sperm. Nature of the data set: Inhibition of human sperm motility assessed as decrease in average path velocity by CASA. It is filed as functional.
Data set [3] has as its system Sperm. Nature of the data set: Inhibition of human sperm motility assessed as decrease in straight line velocity by CASA. It is filed as functional.
A short description of data set [4]: Inhibition of human sperm motility by Sander-Cramer modified assay. It is filed as functional.
Data set [5] relates to Sperm. Nature of the data set: Inhibition of human sperm motility upto 15 mins by CASA. It counts as functional, cell-based.
The subject of data set [6] is Sperm. In words: Inhibition of human sperm motility at 5 ug/ml after 15 mins by CASA. It is filed as functional.
The next data set deals with HeLa. Nature of the data set: Cytotoxicity against human HeLa cells at above 16 ug/ml after 24 hrs by MTT assay. It is filed as cell-based. In general terms: Formazan colour is commonly taken as a measure of viable cells.
Data set [7] is described as follows: Inhibition of human sperm motility at 20 ug/ml after 5 mins by CASA. It is filed as functional. On the set-up: scale not given: the % may be the effect or the level left.

Calls of active or inactive are those of the source. No cut-off for these calls is given here.

With `CSCC[C@H](NC(=O)[C@H](Cc1c[nH]c2ccccc12)NC(=O)[C@H](CC(C)C)NC(=O)[C@H](C)N)C(=O)N[C@H](C(=O)N[C@@H](CC(C)C)C(=O)N[C@@H](CC(C)C)C(=O)N[C@@H](CCCCN)C(=O)N[C@@H](CCCCN)C(=O)N[C@H](C(=O)N[C@@H](CC(C)C)C(=O)N[C@@H](CCCCN)C(=O)N[C@@H](C)C(=O)N[C@@H](C)C(=O)N[C@@H](C)C(=O)N[C@@H](CCCCN)C(=O)N[C@@H](C)C(=O)N[C@@H](C)C(=O)N[C@@H](CC(C)C)C(=O)N[C@@H](CC(N)=O)C(=O)N[C@@H](C)C(=O)N[C@H](CN[C@@H](CC(C)C)C(=O)N[C@H](C(=O)NCC(=O)N[C@@H](C)C(=O)N[C@@H](CC(N)=O)C(=O)N[C@@H](C)C(N)=O)C(C)C)C(C)C)C(C)C)[C@@H](C)O`, the Activity result in the data set with Sperm [1], in the data set with Sperm [2] and in the data set on Sperm [3] was “Dose-dependent effect” in each case.

On to H-LLKKVLKAAAKAALNAVLVGANA-OH, for which the EC100 in data set [4] is 25 µg/mL. In the data set on Sperm [5], the result was inactive. Moreover, the Activity entry in the data set on Sperm [1], in the data set on Sperm [2] and with Sperm [3] was “Dose-dependent effect” throughout.

Regarding `CC(C)C[C@H](NC[C@@H](NC(=O)[C@H](C)NC(=O)[C@H](CC(N)=O)NC(=O)[C@H](CC(C)C)NC(=O)[C@H](C)NC(=O)[C@H](C)NC(=O)[C@H](CCCCN)NC(=O)[C@H](C)NC(=O)[C@H](C)NC(=O)[C@H](C)NC(=O)[C@H](CCCCN)NC(=O)[C@H](CC(C)C)NC(=O)[C@@H](NC(=O)[C@H](CCCCN)NC(=O)[C@H](CCCCN)NC(=O)[C@H](CC(C)C)NC(=O)[C@H](CC(C)C)NC(=O)[C@@H](NC(=O)[C@H](CCCCN)NC(=O)[C@H](Cc1c[nH]c2ccccc12)NC(=O)[C@H](CC(C)C)NC(=O)[C@H](C)N)[C@@H](C)O)C(C)C)C(C)C)C(=O)N[C@H](C(=O)NCC(=O)N[C@@H](C)C(=O)N[C@@H](CC(N)=O)C(=O)N[C@@H](C)C(=O)O)C(C)C`, in the data set with Sperm [6], the result was Active. The Activity result in the data set with Sperm [1], in the data set on Sperm [2] and in the data set on Sperm [3] was “Dose-dependent effect” throughout.

In the case of “H-ALWKTLLKKVLKAAAKAALNAVLVGANA-OH [listing 1 of 2 here]”, the Activity entry in the data set on HeLa is recorded as “Toxic”.

As for “H-ALWMTLLKKVLKAAAKAALNAVLVGANA-NH2 [listing 1 of 2 here]”, the EC100 in data set [4] was 25 µg/mL.

For H-ALWMTLLKKVLKAAAKAALNAVLVGANA-OH, the EC100 in data set [4] was 25 µg/mL.

The compound H-ALWKTLLKKVLKAAAK-NH2 gave an EC100 in data set [4] of 25 µg/mL. For the same compound, the Activity entry in the data set with Sperm [1] is “Dose-dependent effect”; in the data set with Sperm [2], “Dose-dependent effect”; with Sperm [3] it was “Dose-dependent effect”; in the data set on HeLa it was “Toxic”.

In the case of “H-ALWKTLLKKVLKAAAKAALNAVLVGANA-OH [listing 2 of 2 here]”, the Activity in data set [7] was found to be 100%.

For the compound “H-ALWMTLLKKVLKAAAKAALNAVLVGANA-NH2 [listing 2 of 2 here]”, in the data set with HeLa, the Activity entry is reported as “Toxic”.

For the origin of these results see ChEMBL document CHEMBL1143886, “In vitro spermicidal activity of peptides from amphibian skin: dermaseptin S4 and derivatives” (Bioorg Med Chem, 2008).
